Reference: ChEMBL document CHEMBL3137667, “[Drug-induced liver injury; fourteenth updated edition of the bibliographic database of liver injuries and related drugs]” (Gastroenterol Clin Biol, 2004)
Where a SMILES comes first, the peptide text is derived from it. Bridges are numbered along the chain shown (N, C = ends). [ ]: non-standard residue; d: D form.

How the values were obtained:
[1] = Highest frequency of moderate liver toxicity observed during clinical trials, expressed as a percentage. [column '% BIOL' in source]; conditions: human
[2] = Highest frequency of acute liver toxicity observed during clinical trials, expressed as a percentage. [column '% AIGUE' in source]; conditions: human
[3] = Comments (NB not yet translated). [column 'COMMENTAIRES' in source]; conditions: human
[4] = Times to onset, minimal and maximal, observed in the indexed observations. [column 'DELAI' in source]; conditions: human
[5] = human, serum
[6] = human, serum; remark: listed apart in the source
[7] = human
[8] = human; remark: listed apart in the source
[9] = human; remark: listed apart in the source
[10] = human, serum, 4383 h
[11] = human; remark: listed apart in the source
[12] = human; remark: listed apart in the source
[13] = human; remark: listed apart in the source
[14] = human; remark: listed apart in the source
[15] = human; remark: listed apart in the source
[16] = human; remark: listed apart in the source
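Wherever Hepatotoxicity (association with vascular disease) is given: count of indexed literature references reporting vascular liver injury in humans, e.g. peliosis hepatitis, hepatic veno-occlusive disease or Budd-Chiari syndrome.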
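Wherever Hepatotoxicity (benign tumour) is given: value is a count of indexed literature references citing a benign tumour confirmed by histopathology.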
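Wherever Hepatotoxicity (choleostasis) is given: human cholestatic liver injury, shown by histopathology or by peak ALT or AST elevation over alkaline phosphatase ratio below 2, value counts indexed literature reports.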
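Wherever Hepatotoxicity (chronic liver disease) is given: chronic liver injury confirmed by histopathology or persistently raised serum aminotransferase activity beyond 6 months, value given as the count of indexed literature references.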
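Wherever Hepatotoxicity (cirrhosis) is given: value is a count of indexed literature references reporting cirrhosis confirmed by histopathology.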
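Wherever Hepatotoxicity (cytolytic) is given: human cytolytic liver injury, shown by histopathology or by a ratio above 5 of peak ALT or AST elevation to alkaline phosphatase elevation, value counts indexed references.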
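Wherever Hepatotoxicity (granulomatous hepatitis) is given: value is a count of indexed literature references reporting granulomatous liver disease confirmed by histopathology.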
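Wherever Hepatotoxicity (malignant tumour) is given: malignant tumour confirmed by histopathology, value gives the count of indexed literature references reporting it.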
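Wherever Hepatotoxicity (severe hepatitis) is given: human clinical data: severe hepatitis, meaning potentially life-threatening liver failure or clinically observed cases, the value counts how many indexed literature references report it.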
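Wherever Hepatotoxicity (steatosis) is given: steatosis confirmed by histopathology, value is the count of indexed references.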

Row | Compound | Hepatotoxicity (moderate) [1] [%] | Hepatotoxicity (acute) [2] [%] | Hepatotoxicity (comment) [3] | Hepatotoxicity (time to onset) [4] | Hepatotoxicity (moderate) [5] | Hepatotoxicity (acute) [6] | Hepatotoxicity (cytolytic) [7] | Hepatotoxicity (choleostasis) [8] | Hepatotoxicity (severe hepatitis) [9] | Hepatotoxicity (chronic liver disease) [10] | Hepatotoxicity (cirrhosis) [11] | Hepatotoxicity (granulomatous hepatitis) [12] | Hepatotoxicity (association with vascular disease) [13] | Hepatotoxicity (steatosis) [14] | Hepatotoxicity (malignant tumour) [15] | Hepatotoxicity (benign tumour) [16] | Hepatotoxicity (granulomatous hepatitis) ([12]; Liver)
1 | C[C@]12COC(=O)C[C@@H]1CC[C@@H]1[C@@H]2CC[C@@]2(C)[C@H]1CC[C@]2(C)O [OXANDROLONE] | 0 | 0 | HNF | 6 months | 0 | 2 | 0 | 2 | 0 | 0 | 0 | 0 | 0 | 0 | 0 | 1 | –
2 | CC/C(=C(/CC)c1ccc(O)cc1)c1ccc(O)cc1 [DIETHYLSTILBESTROL] | 19 | 0 | ANGIOSARCOME RC/TAMOXIFENE | 4 days - 15 years | 3 | 5 | 0 | 4 | 1 | 0 | 0 | – | 1 | 0 | 6 | 0 | 0
3 | CN(C)C(=O)Oc1cc(OC(=O)N(C)C)cc(C(O)CNC(C)(C)C)c1 (configuration not stated) [BAMBUTEROL] | 0 | 0 | VOIR_TERBUTALINE | – | 1 | 0 | 0 | 0 | 0 | 0 | 0 | 0 | 0 | 0 | 0 | 0 | –
4 | CC(C)[C@@H]1NC(=O)[C@H](CCCCN)NC(=O)[C@@H](Cc2c[nH]c3ccccc23)NC(=O)[C@H](Cc2ccc(O)cc2)NC(=O)[C@@H](NC(=O)[C@H](N)Cc2ccccc2)CSSC[C@@H](C(=O)N[C@@H](Cc2c[nH]c3ccccc23)C(N)=O)NC1=O [VAPREOTIDE] (H-[dF]CY[dW]KVCW-NH2; disulfide 2-7) | 4.8 | 0 | LITHIASE | – | 1 | 0 | 0 | 0 | 0 | 0 | 0 | 0 | 0 | 0 | 0 | 0 | –
5 | O=C1Nc2ccc(Cl)cc2C(c2ccccc2Cl)=NC1O (configuration not stated) [LORAZEPAM] | 0 | 0 | I/PYRIMETHAMINE | – | 1 | 1 | 0 | 0 | 0 | 0 | 0 | 0 | 0 | 0 | 0 | 0 | –
6 | CC[C@H](c1ccc(O)cc1)[C@@H](CC)c1ccc(O)cc1 [HEXESTROL] | 0 | 0 | NASH | – | 0 | 0 | 0 | 0 | 0 | 1 | 0 | 0 | 0 | 1 | 0 | 0 | –
7 | COc1cc([C@@H]2c3cc4c(cc3[C@@H](O[C@@H]3O[C@@H]5CO[C@@H](c6cccs6)O[C@H]5[C@H](O)[C@H]3O)[C@H]3COC(=O)[C@H]23)OCO4)cc(OC)c1O [TENIPOSIDE] | 23.8 | 0 | HNR | – | 4 | 0 | 0 | 0 | 0 | 0 | 0 | 0 | 1 | 0 | 0 | 0 | –
8 | ANTIMONY (III) ION | 0 | 0 | HEPATONEPHRITE | – | 0 | 1 | 1 | 0 | 0 | 0 | 0 | 0 | 0 | 0 | 0 | 0 | –
9 | C[C@]12CCC(=O)C=C1CC[C@@H]1[C@@H]2C(=O)C[C@@]2(C)[C@H]1CC[C@]2(O)C(=O)CO [CORTISONE] | 0 | 0 | AGGRAVATION_HEPATITE_VIRALE | – | 0 | 0 | 0 | 0 | 0 | 0 | 0 | 0 | 2 | 5 | 0 | 0 | –
10 | CO/N=C(\C(=O)N[C@@H]1C(=O)N2C(C(=O)O)=C(CSc3nnnn3C)CS[C@H]12)c1csc(N)n1 [CEFMENOXIME] | 12.2 | 0 | CHOLESTASE_PROLONGEE | – | 11 | 1 | 0 | 1 | 0 | 0 | 0 | 1 | 0 | 0 | 0 | 0 | –
